Where a SMILES comes first, the peptide text is derived from it.

For data set [1], the system named is cell cycle (G2/M, subG1). The data set can be described thus: FACS cell cycle analysis after cell cycle synchronization. In kind it is cell-based. The source says:
The growth inhibitory and cell death-inducing efficacy of ACP52C was confirmed by FACS analysis by treating cells with ACPS2C after synchronizing the cell cycle to the G1/S phase through a double thymidine block method.

Data set [2] concerns various cancer cell lines. The data set can be described thus: Anticancer effect of ACP52C in various carcinomas (GI50, FIG. 1). In kind it is cell-based. The source says:
FIG. 1 illustrates GI50 values dependent upon ACP52C treatment in various cancer cell lines.
The selected peptide binds to CP2c and inhibits the formation of a transcription factor complex including CP2c (CP2c homotetramer and CP2c/CP2b/PIAS1 heterohexamer), thereby indirectly interfering with DNA binding of CP2c.

The nature of data set [3]: Preliminary repeated toxicity test of ACP52C. It is filed as in vivo, mouse. The settings on record: 100 mg/kg and 1000 mg/kg repeatedly administered twice. The procedure: A repeated toxicity test for the in vivo administration of ACP52CGK was conducted using female and male mice. […] As a full-scale experiment, after intravenous infusion of ACP52CGK for 28 days at 3-day intervals into the solvent group and high-dose group (100 mg/Kg) of 6 males and females each, the weight change, drinking water intake, and main histological analysis of organs, organ weight, hematological tests and blood biochemical tests were analyzed.

Data set [4] can be described thus: ELISA for antibody formation in sera of injected rabbits (immunogenicity). The settings on record: rabbit, in vivo. The source says: To verify this, immunogenicity of ACP52CG and ACP52CK was directly tested in the process of deriving the final new drug candidate. Since the final candidate material might be a C-16 palmitoyl acid-conjugated ACP52C peptide, which is not different with ACP52CG and ACP52CK in terms of chemical composition, it was decided to analyze whether antibodies were formed on ACP52CG and ACP52CK. […] Therefore, it was concluded that the final candidate material (ACP52CGK) would also not show immunogenicity in the human body (FIG. 21).
For orientation: In an ELISA, binding on a coated surface is turned into a signal by an enzyme label.

The conditions of data set [5]: mouse, in vivo.
Protocol: To analyze the in vivo half-life of ACP52CGK, Cy5-labeled ACP52CGK was injected into the tail vein of the mouse, and then the fluorescence intensity remaining in the mouse body was measured over time by live imaging process.
The subject of data set [6] is CHK1/2, CDC25c, CDK1, cyclin B, caspases. The data set can be described thus: Expression of cell cycle and apoptosis marker proteins after ACP52C treatment. It is filed as cell-based.
The nature of data set [7]: Degradation in mouse blood samples after tail vein injection, HPLC. In kind it is in vivo.
Protocol: (§2) The ACP52C half-life in the solution containing serum was analyzed by HPLC (model: UHPLC DIONEX Ultimate 3000; Flow=1.000 ml/min) after incubation of ACP52C in the solution containing 10% serum for various times and then removing serum proteins with Centricon (Mw10,000) before HPLC analysis. […] Meanwhile, after injecting ACP52C into the mouse via tail vein, blood samples were extracted over time and the degree of ACP52C degradation in the blood samples was analyzed by HPLC.
For data set [8], the system named is A549 cell line in which MDM2 overexpression is chronically induced. The data set can be described thus: MTT assay in A549 cell line with chronically induced MDM2 overexpression. In kind it is cell-based. Conditions: doxycycline for 3 weeks, MDM2p90 overexpressed. The source says: (§1) Since MDM2p60 is known to be a protein in which the C-terminal region of MDM2p90 comprising sites (S386, S395, and S407) phosphorylated by ATM is deleted, it was speculated that the MDM2 degradation would not be properly regulated by ACP52C treatment (FIG. 29, FIGS. 30a to 30c).
In general terms: Tetrazolium dyes change colour on reduction, which living cells bring about.

In data set [9] the test system is lung cancer cell lines (A549, PC9, KCL22). The data set can be described thus: Immunoblot of CP2c pathway proteins in lung cancer cell lines treated with ACP52C. It is filed as cell-based.
Source text: as §1
For orientation: A western blot detects proteins with antibodies after separation by electrophoresis.

Data set [10] is described as follows: Half-life in solution containing 10% serum by HPLC. In kind it is in vitro ADME. The settings on record: HPLC after removing serum proteins.
Protocol: as §2
The mark [11] stands for this setting: ACP52C-induced G2/M phase arrest.

With `CC(=O)N[C@@H](CC(N)=O)C(=O)N[C@@H](Cc1ccc(O)cc1)C(=O)N1CCC[C@H]1C(=O)N[C@@H](CCC(N)=O)C(=O)N[C@@H](CCCNC(=N)N)C(=O)N1CCC[C@H]1C(=O)N[C@@H](CS)C(=O)N[C@@H](CCCNC(=N)N)C(=O)NCC(=O)N[C@@H](CC(=O)O)C(=O)N[C@@H](CCCCN)C(=O)NCC(=O)N1CCC[C@H]1C(=O)N[C@@H](CC(=O)O)C(=O)N[C@@H](CS)C(N)=O` [ACP52C] (Ac-NYPQRPCRGDKGPDC-NH2), the “cell cycle effect (FACS)” value in [1] (cell line synchronized to G2/M phase with thymidine/nocodazole) is “the cell cycle was arrested at the subG1 phase and cell death was induced”. For the same compound, in data set [1] (cells synchronized to G1/S phase by double thymidine block), the “cell cycle effect (FACS)” value is reported as “cell cycle arrest at the G2/M phase”. Besides, the “growth inhibition and cell death efficacy” value in data set [2] was “cancer cell-specific growth inhibition and cell death efficacy”. Moreover, in data set [3], the “liver toxicity or adverse effect on major organs” value is listed as “any liver toxicity or adverse effect on major organs was not observed” and the survival result is given as “all the mice survived”. In data set [4], the “immune response of sera from rabbits injected with ACP52CG and ACP52CK three times (ELISA)” value is “did not induce immune responses”. For the same compound, the “presence in cancer tissues after injection” value in data set [5] is “observed in cancer tissues even 5 days after injection”. In addition, the “cell death induction mechanism” value in data set [6] is listed as “apoptosis via activation of caspases”. In [6] (setting [11]), the “expression of CDC25c, CDK1, and cyclin B proteins” value is “decreased expression of CDC25c, CDK1, and cyclin B proteins”; the “expression of CHK1/2 protein” value is on record as “increased expression of CHK1/2 protein”. In addition, in data set [7], the “half-life in mouse blood” value is given as “about 2 hours”. Moreover, the “induction of cell death” value in data set [8] was “cell death was induced from the second week”. In [9], the “expression of MDM2 (p90 and p60)” value is listed as “no decrease in the expression”; the “expression of YY1” value is recorded as “decreased”; the “expression of p53, p63 and p73” value is given as “did not show any change”. Further, in [10], the “degradation in solution containing 10% serum” value is “not degraded at all until 24 hours”.

(Values after patent US12605453B2, “CP2C-targeting peptide-based anticancer agent” (Industry-University Cooperation Foundation Hanyang …, priority 2019, dated 2026).)
